Reference: patent publication US7906656B2, “Iodopyrazolyl carboxanilides” (Bayer CropScience AG, priority 2003, dated 2011)

tested on: Botrytis cinerea; test: Botrytis test (bean)/protective; type: in vivo; settings: 48 h, protective, application rate 100 g/ha, evaluation 2 days after inoculation, read-out: Efficacy in %
Protocol: To produce a suitable preparation of active compound, 1 part by weight of active compound is mixed with the stated amounts of solvents and emulsifier, and the concentrate is diluted with water to the desired concentration. To test for protective activity, young plants are sprayed with the preparation of active compound at the stated application rate. After the spray coating has dried on, 2 small pieces of agar colonized with Botrytis cinerea are placed onto each leaf. The inoculated plants are placed in a darkened chamber at about 20° C. and 100% relative atmospheric humidity. 2 days after the inoculation, the size of the infected areas on the leaves is evaluated. 0% means an efficacy which corresponds to that of the control, whereas an efficacy of 100% means that no infection is observed.

Row | Structure (SMILES) | pest or weed control at 100 g/ha [%]
1 | Cn1cc(C(=O)Nc2ccc(F)cc2-c2ccc(Cl)c(Cl)c2)c(I)n1 [drawing 88] | 100
2 | Cn1cc(C(=O)Nc2ccccc2-c2ccc(Cl)cc2)c(I)n1 [drawing 96] | 100
3 | Cn1cc(C(=O)Nc2ccccc2-c2ccc(I)cc2)c(I)n1 [drawing 97] | 100
4 | CC(C)CCc1ccccc1NC(=O)c1cn(C)nc1I [drawing 98] | 98
5 | CC1CC(C)(C)c2cccc(NC(=O)c3cn(C)nc3I)c21 (centres unmarked) [drawing 99] | 100
6 | CC(C)CC(C)c1cc(F)ccc1NC(=O)c1cn(C)nc1I (centres unmarked) [drawing 100] | 100

same assay, conditions: 48 h, protective, application rate 500 g/ha, evaluation 2 days after inoculation, read-out: Efficacy in %

Row | Structure (SMILES) | pest or weed control at 500 g/ha [%]
7 | Cn1cc(C(=O)Nc2ccccc2-c2ccc(Cl)c(Cl)c2)c(I)n1 [drawing 87] | 100
8 | Cn1cc(C(=O)Nc2ccccc2-c2ccc(F)c(Cl)c2)c(I)n1 [drawing 89] | 100
9 | Cn1cc(C(=O)Nc2ccccc2-c2ccc(Br)cc2)c(I)n1 [drawing 90] | 100
10 | Cn1cc(C(=O)Nc2ccccc2-c2ccc(Cl)c(F)c2)c(I)n1 [drawing 91] | 100
11 | CCCO/N=C/c1ccc(-c2ccccc2NC(=O)c2cn(C)nc2I)cc1F [drawing 92] | 100
12 | Cc1ccc(-c2ccccc2NC(=O)c2cn(C)nc2I)cc1F [drawing 93] | 100
13 | Cn1cc(C(=O)Nc2ccccc2-c2ccc(C(F)(F)F)cc2)c(I)n1 [drawing 94] | 94
14 | Cn1cc(C(=O)Nc2ccccc2-c2ccc(C(F)(F)F)c(F)c2)c(I)n1 [drawing 95] | 100

tested on: Puccinia recondita; test: Puccinia test (wheat)/protective; type: in vivo; settings: 240 h, protective, application rate 500 g/ha, evaluation 10 days after inoculation, read-out: Efficacy in %
Protocol: (§1) To produce a suitable preparation of active compound, 1 part by weight of active compound is mixed with the stated amounts of solvent and emulsifier, and the concentrate is diluted with water to the desired concentration. To test for protective activity, young plants are sprayed with the preparation of active compound at the stated application rate. After the spray coating has dried on, the plants are sprayed with a conidia suspension of Puccinia recondita. The plants remain in an incubation cabin at 20° C. and 100% relative atmospheric humidity for 48 hours. The plants are then placed in a greenhouse at a temperature of about 20° C. and a relative atmospheric humidity of 80% to promote the development of rust pustules. Evaluation is carried out 10 days after the inoculation. 0% means an efficacy which corresponds to that of the control, whereas an efficacy of 100% means that no infection is observed.

Row | Structure (SMILES) | pest or weed control at 500 g/ha [%]
15 | CC(CC(C)(C)C)c1ccccc1NC(=O)c1cn(C)nc1I (centres unmarked) [drawing 111] | 100
16 | CC(C)CC(C)c1ccccc1NC(=O)c1cn(C)nc1I (centres unmarked) [drawing 112] | 100
17 | Cn1cc(C(=O)Nc2ccccc2-c2ccc(Cl)c(F)c2)c(I)n1 [drawing 113] | 100
18 | Cn1cc(C(=O)Nc2ccccc2-c2ccc(I)cc2)c(I)n1 [drawing 114] | 100
19 | Cn1cc(C(=O)Nc2ccccc2-c2ccc(Cl)c(Cl)c2)c(I)n1 [drawing 115] | 100
20 | Cn1cc(C(=O)Nc2ccccc2-c2ccc(Cl)cc2)c(I)n1 [drawing 116] | 100
21 | Cn1cc(C(=O)Nc2ccccc2-c2ccc(F)c(Cl)c2)c(I)n1 [drawing 117] | 100
22 | Cn1cc(C(=O)Nc2ccccc2-c2ccc(Br)cc2)c(I)n1 [drawing 118] | 100
23 | Cn1cc(C(=O)Nc2ccccc2-c2ccc(C(F)(F)F)c(F)c2)c(I)n1 [drawing 119] | 100
24 | CC(=O)N(C(=O)c1cn(C)nc1I)c1ccccc1C(C)CC(C)C (centres unmarked) [drawing 120] | 100
25 | CC(C)CC(C)c1cc(F)ccc1NC(=O)c1cn(C)nc1I (centres unmarked) [drawing 121] | 100
26 | CC(C)CCc1ccccc1NC(=O)c1cn(C)nc1I [drawing 122] | 100
27 | CC1CC(C)(C)c2cccc(NC(=O)c3cn(C)nc3I)c21 (centres unmarked) [drawing 123] | 100
28 | C=C(CC(C)(C)C)c1ccccc1NC(=O)c1cn(C)nc1I [drawing 124] | 100

tested on: Alternaria solani; test: Alternaria test (tomato)/protective; type: in vivo; settings: protective, application rate 750 g/ha, evaluation 7 days after inoculation
Protocol: To produce a suitable preparation of active compound, 1 part by weight of active compound is mixed with the stated amounts of solvent and emulsifier, and the concentrate is diluted with water to the desired concentration. To test for protective activity, young tomato plants are sprayed with the preparation of active compound at the stated application rate. 1 day after the treatment, the plants are inoculated with a spore suspension of Alternaria solani and are then allowed to stand at 100% relative atmospheric humidity and 20° C. for 24 h. The plants are then allowed to stand at 96% relative atmospheric humidity and a temperature of 20° C. The evaluation is carried out 7 days after the inoculation. 0% means an efficacy which corresponds to that of the control, whereas an efficacy of 100% means that no infection is observed.

Row | Structure (SMILES) | Efficacy in % [%]
29 | Cn1cc(C(=O)Nc2ccccc2-c2ccc(I)cc2)c(I)n1 [drawing 125] | 100
30 | Cn1cc(C(=O)Nc2ccc(F)cc2-c2ccc(Cl)c(Cl)c2)c(I)n1 [drawing 126] | 100
31 | Cn1cc(C(=O)Nc2ccccc2-c2ccc(F)c(Cl)c2)c(I)n1 [drawing 127] | 100

tested on: Pyrenophora teres; test: Pyrenophora teres test (barley)/protective; type: in vivo; settings: 192 h, protective, application rate 500 g/ha, evaluation 8 days after inoculation, read-out: Efficacy in %
Protocol: as §1, with “of Pyrenophora teres.” for “of Puccinia recondita.”, “of about 80%.” for “of 80% to promote the development of rust pustules.”, “out 8” for “out 10”

Row | Structure (SMILES) | pest or weed control at 500 g/ha [%]
32 | CC(CC(C)(C)C)c1ccccc1NC(=O)c1cn(C)nc1I (centres unmarked) [drawing 101] | 93
33 | CC(C)CC(C)c1ccccc1NC(=O)c1cn(C)nc1I (centres unmarked) [drawing 102] | 100
34 | Cn1cc(C(=O)Nc2ccccc2-c2ccc(Cl)c(F)c2)c(I)n1 [drawing 103] | 100
35 | Cn1cc(C(=O)Nc2ccccc2-c2ccc(I)cc2)c(I)n1 [drawing 104] | 100
36 | Cn1cc(C(=O)Nc2ccccc2-c2ccc(Cl)cc2)c(I)n1 [drawing 105] | 100
37 | Cn1cc(C(=O)Nc2ccccc2-c2ccc(F)c(Cl)c2)c(I)n1 [drawing 106] | 100
38 | Cn1cc(C(=O)Nc2ccccc2-c2ccc(Br)cc2)c(I)n1 [drawing 107] | 100
39 | Cn1cc(C(=O)Nc2ccccc2-c2ccc(C(F)(F)F)c(F)c2)c(I)n1 [drawing 108] | 100
40 | CC(=O)N(C(=O)c1cn(C)nc1I)c1ccccc1C(C)CC(C)C (centres unmarked) [drawing 109] | 100
41 | CC(C)CC(C)c1cc(F)ccc1NC(=O)c1cn(C)nc1I (centres unmarked) [drawing 110] | 100
